Measured values reported in ChEMBL document CHEMBL1201862, “PubChem BioAssay data set” (2004).
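Interpolation was linear, between the two tested concentrations surrounding the appropriate level; five concentrations were tested over 48 hours in 96-well plates. GI50 marks 50% less growth.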 The source made the active and inactive calls. Rule as the data show it: active = GI50 up to about 1.1 µM and inactive = higher.

Columns and labels:
Test in all cases: inhibition of tumour cell growth, NCI panel, 48 h
LOX IMVI = tested on: LOX IMVI
NCI-H460 = tested on: NCI-H460
SW-620 = tested on: SW-620
OVCAR-5 = tested on: OVCAR-5
HT-29 = tested on: HT-29
CCRF-CEM = tested on: CCRF-CEM
MDA-N = tested on: MDA-N
HOP-62 = tested on: HOP-62
MDA-MB-231 = tested on: MDA-MB-231
HCT-15 = tested on: HCT-15
SF-539 = tested on: SF-539
TK-10 = tested on: TK-10
UACC-62 = tested on: UACC-62
ACHN = tested on: ACHN
OVCAR-8 = tested on: OVCAR-8
HCC 2998 = tested on: HCC 2998
UO-31 = tested on: UO-31
MDA-MB-435 = tested on: MDA-MB-435
UACC-257 = tested on: UACC-257
NCI-H522 = tested on: NCI-H522

Row | SMILES | GI50 (LOX IMVI) | GI50 (NCI-H460) | GI50 (SW-620) | GI50 (OVCAR-5) | GI50 (HT-29) | GI50 (CCRF-CEM) | GI50 (MDA-N) | GI50 (HOP-62) | GI50 (MDA-MB-231) | GI50 (HCT-15) | GI50 (SF-539) | GI50 (TK-10) | GI50 (UACC-62) | GI50 (ACHN) | GI50 (OVCAR-8) | GI50 (HCC 2998) | GI50 (UO-31) | GI50 (MDA-MB-435) | GI50 (UACC-257) | GI50 (NCI-H522)
1 | COc1ccc(C(=O)N(C(=O)N2CCN(c3ccccc3)CC2)S(=O)(=O)c2ccccc2)cc1 | 13.7 µM (inactive) | 32.4 µM (inactive) | 37.4 µM (inactive) | 24.7 µM (inactive) | 28.1 µM (inactive) | 25.1 µM (inactive) | 23.9 µM (inactive) | 35 µM (inactive) | 25.3 µM (inactive) | 27.8 µM | 17.8 µM (inactive) | 38.4 µM (inactive) | 18.3 µM (inactive) | 18.8 µM (inactive) | 19.8 µM (inactive) | 52.6 µM (inactive) | 13.6 µM (inactive) | 29.5 µM (inactive) | 31.4 µM (inactive) | 15.4 µM (inactive)
2 | COc1ccc(/N=C(Nc2ccc(OC)cc2)/C(=N/c2ccc(OC)cc2)Nc2ccc(OC)cc2)cc1 | > 100 µM (inactive) | > 100 µM (inactive) | > 100 µM (inactive) | > 100 µM (inactive) | > 100 µM (inactive) | 36 µM (inactive) | > 100 µM (inactive) | > 100 µM (inactive) | > 100 µM (inactive) | > 100 µM | > 100 µM (inactive) | > 100 µM (inactive) | > 100 µM (inactive) | > 100 µM (inactive) | > 100 µM (inactive) | > 100 µM (inactive) | 5.25 µM (inactive) | > 100 µM (inactive) | > 100 µM (inactive) | > 100 µM (inactive)
3 | CC(=O)C1(O)CCC2(O)C3(O)CC=C4CC(O)CCC4(C)C3CC(OC(=O)c3ccc(O)cc3)C12C (stereo not drawn) | > 100 µM (inactive) | > 100 µM (inactive) | > 100 µM (inactive) | > 100 µM (inactive) | > 100 µM (inactive) | > 100 µM (inactive) | > 100 µM (inactive) | > 100 µM (inactive) | > 100 µM (inactive) | > 100 µM | > 100 µM (inactive) | > 100 µM (inactive) | 75.2 µM (inactive) | > 100 µM (inactive) | > 100 µM (inactive) | > 100 µM (inactive) | > 100 µM (inactive) | > 100 µM (inactive) | > 100 µM (inactive) | > 100 µM (inactive)
4 | C/C(=N/NC(=S)Nc1cccc(Cl)c1)c1cccc(/C(C)=N\NC(=S)Nc2cccc(Cl)c2)n1 | 1.84 µM (inactive) | 2.01 µM (inactive) | 3.25 µM (inactive) | 6.43 µM (inactive) | 2.27 µM (inactive) | 1.28 µM (inactive) | 20.2 µM (inactive) | 1.15 µM (inactive) | 2.69 µM (inactive) | 2.49 µM | 0.597 µM (active) | 2.02 µM (inactive) | 2.1 µM (inactive) | 0.813 µM (active) | 0.902 µM (active) | 6.85 µM (inactive) | 1.67 µM (inactive) | 6.87 µM (inactive) | 4.66 µM (inactive) | 3.03 µM (inactive)
5 | CC(=O)Nc1nc(C)c(S(=O)(=O)NC(=O)NC2NC(=O)NC2=O)s1 (stereo not drawn) | > 100 µM (inactive) | > 100 µM (inactive) | > 100 µM (inactive) | > 100 µM (inactive) | > 100 µM (inactive) | > 100 µM (inactive) | > 100 µM (inactive) | > 100 µM (inactive) | > 100 µM (inactive) | > 100 µM | > 100 µM (inactive) | > 100 µM (inactive) | > 100 µM (inactive) | > 100 µM (inactive) | > 100 µM (inactive) | > 100 µM (inactive) | > 100 µM (inactive) | > 100 µM (inactive) | > 100 µM (inactive) | > 100 µM (inactive)
6 | O=c1c2cc3c(cc2[nH]c2ncccc12)OCO3 | > 10 µM (inactive) | > 10 µM (inactive) | > 10 µM (inactive) | > 10 µM (inactive) | > 10 µM (inactive) | > 10 µM (inactive) | > 10 µM (inactive) | > 10 µM (inactive) | > 10 µM (inactive) | > 10 µM | > 10 µM (inactive) | > 10 µM (inactive) | > 10 µM (inactive) | > 10 µM (inactive) | > 10 µM (inactive) | > 10 µM (inactive) |  | > 10 µM (inactive) | > 10 µM (inactive) | > 10 µM (inactive)
7 | COc1c(O)cc2oc(-c3ccc(O)cc3)cc(=O)c2c1O [HISPIDULIN] | 39.2 µM (inactive) | 30.8 µM (inactive) | 34.1 µM (inactive) | 75.2 µM (inactive) | 45.7 µM (inactive) | 20.6 µM (inactive) | 37.2 µM (inactive) | 46.7 µM (inactive) | 74.5 µM (inactive) | 38.7 µM | 27 µM (inactive) | 39.2 µM (inactive) | 19 µM (inactive) | 26.8 µM (inactive) |  | 28.7 µM (inactive) | 25.1 µM (inactive) | 36.3 µM (inactive) | > 100 µM (inactive) | 36.2 µM (inactive)
